Assay: xn = mol fraction of the nth substance listed
Details: 101 kPa, Liquid; for speed of sound: Sing-around technique in a fixed-path interferometer

Cc1ccccc1C [1,2-dimethylbenzene] + COC(C)(C)C
Details	mass density, 305.65 K [kg/m3]	mass density, 308.15 K [kg/m3]	mass density, 310.65 K [kg/m3]	mass density, 313.15 K [kg/m3]	speed of sound, 308.15 K [m/s]	speed of sound, 310.65 K [m/s]	speed of sound, 313.15 K [m/s]	speed of sound, 315.65 K [m/s]
x2 = 0	868.65	866.538	864.422	862.302	1300.7	1290.6	1280.6	1270.5
x2 = 0.052	861.853	859.718	857.577	855.433	1293.5	1283.5	1273.4	1263.4
x2 = 0.101	855.807	853.654	851.495	849.333	1278.9	1268.9	1258.9	1248.9
x2 = 0.203	842.365	840.166	837.963	835.755	1249.1	1238.9	1228.7	1218.5
x2 = 0.303	829.01	826.764	824.515	822.257	1218.2	1207.9	1197.6	1187.3
x2 = 0.401	815.857	813.564	811.267	808.961	1188.5	1178	1167.5	1157.1
x2 = 0.499	801.959	799.615	797.264	794.906	1157	1146.5	1135.9	–
x2 = 0.604	786.901	784.495	782.083	779.664	1124.5	1113.6	1102.8	–
x2 = 0.707	771.779	769.312	766.837	764.349	1089.9	1078.8	1067.7	–
x2 = 0.8	757.862	755.336	752.799	750.25	1058	1046.9	1035.9	–
x2 = 0.9	742.391	739.788	737.174	734.547	1026.9	1015.4	1003.8	–
x2 = 0.95	734.452	731.817	729.169	726.508	1007.3	996.05	984.72	–
